Measured values taken from patent US12485154B2 (priority 2019, dated 2025).

Test system: new influenza virus (A/California/04/2009(H1N1))
Format: in vivo
Settings: H1N1-infected BALB/c mice (6 per group), observed 14 days after infection; ginseng concentrates 10 mg/kg/day for 14 days before and one week after inoculation; Tamiflu 2 mg/kg/day

Work on `CCOC(=O)C1=C[C@@H](OC(CC)CC)[C@H](NC(C)=O)[C@@H](N)C1` [Tamiflu] yielded a Fatality of 0%.
